biological target: T1, KRas G12C (Homo sapiens, UniProt P01116, G12C); assay: Inhibition of KRas G12C in NCI-H358 cells measured by phosphorylated ERK (Phospho-ERK); type: cell-based; conditions: pERK(Thr202/Tyr204) signal normalized with GAPDH, percent of DMSO control, 3 hours compound treatment
T1 construct: NCI-H358 cells (ATCC CRL-5807) express KRas G12C; host or cells: NCI-H358
Procedure: The cellular inhibition of KRAs G12C by exemplary compounds of the present invention was determined by measuring the amount of a downstream marker of KRas activity, phosphorylated ERK (“Phospho-ERK”).
NCI-H358 cells (ATCC CRL-5807) express KRas G12C and were grown in RPMI medium supplemented with 10% fetal bovine serum, penicillin/streptomycin and 10 mM HEPES. Cells were plated in poly-D-Lysine coated 96-well plates at a concentration of 50,000 cells/well and allowed to attach for 8-12 hours. Diluted compounds were then added at a final concentration of 0.5% DMSO. After 3 hours, the medium was removed, 150 μL of 4% formaldehyde was added and the plates were incubated for 20 minutes. The plates were washed with PBS, and permeabilized using 150 μL of ice cold 100% methanol for 10 minutes. Non-specific antibody binding to the plates was blocked using 100 μL Licor Blocking Buffer (Li-Cor Biotechnology, Lincoln Nebr.) for 1 hour at room temperature. Positive control samples and samples lacking cells were parallel processed with test samples as standards.
The amount Phospho-ERK was determined using an antibody specific for the phosphorylated form of ERK and compared to the amount of GAPDH. Primary antibodies used for detection were added as follows: Phospho-ERK (Cell Signaling cs9101) diluted 1:500 and GAPDH (Millipore MAB374) diluted 1:5000 in Licor block+0.05% Tween 20. The plates were incubated for 2 hours at room temperature. The plates were washed with PBS+0.05% Tween 20.
Secondary antibodies used to visualize primary antibodies were added as follows: Anti-rabbit-680 diluted 1:1000 and Anti-mouse-800 diluted 1:1000 in Licor Block+0.05% Tween 20 and incubated for 1 hour at room temperature. The plates were washed with PBS+0.05% Tween 20. A 100 μL aliquot of PBS was added to each well and the plates were read on a LICOR AERIUS plate reader.
The pERK(Thr202/Tyr204) signal was normalized with the GAPDH signal and percent of DMSO control values were calculated. IC50 values were generated using a 4 parameter fit of the dose response curve. Key: “A”≤500 nM; “B”>500 nM and ND=not determined.

T1 sequence (P01116 1-188 isoform P01116-2 G12C): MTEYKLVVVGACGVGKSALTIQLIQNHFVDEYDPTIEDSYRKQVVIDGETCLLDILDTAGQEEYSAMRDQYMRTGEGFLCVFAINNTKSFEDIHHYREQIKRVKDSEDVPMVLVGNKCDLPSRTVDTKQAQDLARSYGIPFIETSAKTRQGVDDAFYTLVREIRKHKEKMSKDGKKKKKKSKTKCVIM

| IC50 [nM] | Compound |
| --- | --- |
| ≤ 500 | C=CC(=O)N1CCN(c2nc(OC[C@@H]3CCCN3C)nc3c2CCCN(c2cccc(F)c2C)C3)C[C@@H]1CC#N [Example 9, 2-((S)-1-acryloyl-4-(8-(3-fluoro-2-methylphenyl)-2-(((S)-1-methylpyrrolidin-2-yl)methoxy)-6,7,8,9-tetrahydro-5H-pyrimido[4,5-c]azepin-4-yl)piperazin-2-yl)acetonitrile] |
| > 500 | C=CC(=O)N1CCN(c2nc(OC[C@@H]3CCCN3C)nc3c2CCCN(c2cccc(C(C)C)c2)C3)C[C@@H]1CC#N [Example 8, 2-[(2S)-4-[8-(3-isopropylphenyl)-2-[[(2S)-1-methylpyrrolidin-2-yl]methoxy]-5,6,7,9-tetrahydropyrimido[4,5-c]azepin-4-yl]-1-prop-2-enoyl-piperazin-2-yl]acetonitrile] |
| ≤ 500 | C=CC(=O)N1CCN(c2nc(OC[C@@H]3CCCN3C)nc3c2CCCN(c2cccc4c(F)cccc24)C3)C[C@@H]1CC#N [Example 12, 2-((S)-1-acryloyl-4-(8-(5-fluoronaphthalen-1-yl)-2-(((S)-1-methylpyrrolidin-2-yl)methoxy)-6,7,8,9-tetrahydro-5H-pyrimido[4,5-c]azepin-4-yl)piperazin-2-yl)acetonitrile] |
